Measurements from patent US20230220021A1, “CYCLIC PEPTIDE INHIBITORS OF PSD-95 AND USES THEREOF” (University of Copenhagen, priority 2020, published 2023).
Where a SMILES comes first, the peptide text is derived from it. [ ]: non-standard residue; d: D form.

target: T1, PSD-95-PDZ2 (Homo sapiens, UniProt P78352); test: Fluorescence polarization (FP) competition assay against cyclic nNOS TAMRA probe; assay type: binding; settings: FP competition, cyclic nNOS TAMRA probe; mean of triplicates; N.B. = not binding; read-out: Ki
T1 construct: 7xHis (N); made in house; host or cells: Escherichia coli B21 pLys (for the mutants, 'as previously described')
T1 sequence (P78352 160-246 limits assumed): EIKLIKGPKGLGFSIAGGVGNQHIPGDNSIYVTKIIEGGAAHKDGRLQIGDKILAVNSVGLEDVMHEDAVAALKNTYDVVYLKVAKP

Ki [µM]	Compound
11.5	CC[C@H](C)[C@@H]1NC(=O)[C@H]([C@@H](C)O)NC(=O)[C@H](CCCCN)NC(=O)[C@@H]2CCCN2C(=O)[C@H]([C@@H](C)O)NC(=O)CNC(=O)[C@H](CC(=O)O)NC(=O)CNC(=O)[C@H]([C@@H](C)O)NC(=O)[C@H](Cc2ccccc2)NC(=O)[C@H](CCC(=O)O)NC(=O)[C@H]([C@@H](C)O)NC(=O)[C@H](CCC(=O)O)NC(=O)[C@H](CC(C)C)NC(=O)[C@H](Cc2c[nH]cn2)NC(=O)[C@H]([C@@H](C)O)NC(=O)[C@H](CCC(N)=O)NC(=O)CNC(=O)[C@H]2CCCN2C(=O)[C@H](CCC(N)=O)NC(=O)[C@H]([C@@H](C)O)NC(=O)[C@H](C(C)C)NC(=O)[C@H](CCCNC(=N)N)NC1=O [compound 53] (cyclo(THLETEFTGDGTPKTIRVTQ[dP]GQ))
1.43	CC[C@H](C)[C@@H]1NC(=O)[C@H]([C@@H](C)O)NC(=O)[C@H](CCCCN)NC(=O)[C@@H]2CCCN2C(=O)CNC(=O)[C@H](CC(=O)O)NC(=O)CNC(=O)[C@H]([C@@H](C)O)NC(=O)[C@H](Cc2ccccc2)NC(=O)[C@H]([C@@H](C)O)NC(=O)[C@H]([C@@H](C)O)NC(=O)[C@H](CCC(=O)O)NC(=O)[C@H](CC(C)C)NC(=O)[C@H](Cc2c[nH]cn2)NC(=O)[C@H]([C@@H](C)O)NC(=O)[C@H](CCC(N)=O)NC(=O)CNC(=O)[C@H]2CCCN2C(=O)[C@H](CCC(N)=O)NC(=O)[C@H]([C@@H](C)O)NC(=O)[C@H](C(C)C)NC(=O)[C@H](CCCNC(=N)N)NC1=O [compound 77] (cyclo(THLETTFTGDGPKTIRVTQ[dP]GQ))
4.8	CC[C@H](C)[C@@H]1NC(=O)[C@H]([C@@H](C)O)NC(=O)[C@H](CCCCN)NC(=O)[C@@H]2CCCN2C(=O)[C@H]([C@@H](C)O)NC(=O)CNC(=O)[C@H](CC(=O)O)NC(=O)CNC(=O)[C@H]([C@@H](C)O)NC(=O)[C@H](Cc2ccccc2)NC(=O)[C@H]([C@@H](C)O)NC(=O)[C@H]([C@@H](C)O)NC(=O)[C@H](CCC(=O)O)NC(=O)[C@H](CC(C)C)NC(=O)[C@H](Cc2c[nH]cn2)NC(=O)[C@H]([C@@H](C)O)N(C)C(=O)[C@H](CCC(N)=O)NC(=O)CNC(=O)[C@H]2CCCN2C(=O)[C@H](CCC(N)=O)NC(=O)[C@H]([C@@H](C)O)NC(=O)[C@H](C(C)C)NC(=O)[C@H](CCCNC(=N)N)NC1=O [compound 84]
1.47	CC[C@H](C)[C@@H]1NC(=O)[C@H]([C@@H](C)O)NC(=O)[C@H](CCCCN)NC(=O)[C@@H]2CCCN2C(=O)[C@H]([C@@H](C)O)NC(=O)CNC(=O)[C@H](CC(=O)O)NC(=O)CNC(=O)[C@H]([C@@H](C)O)NC(=O)[C@H](Cc2ccccc2)NC(=O)[C@H]([C@@H](C)O)N(C)C(=O)[C@H]([C@@H](C)O)NC(=O)[C@H](CCC(=O)O)NC(=O)[C@H](CC(C)C)NC(=O)[C@H](Cc2c[nH]cn2)NC(=O)[C@H]([C@@H](C)O)NC(=O)[C@H](CCC(N)=O)NC(=O)CNC(=O)[C@H]2CCCN2C(=O)[C@H](CCC(N)=O)NC(=O)[C@H]([C@@H](C)O)NC(=O)[C@H](C(C)C)NC(=O)[C@H](CCCNC(=N)N)NC1=O [compound 89]
6.19	CC[C@H](C)[C@@H]1NC(=O)[C@H]([C@@H](C)O)NC(=O)[C@H](CCCCN)NC(=O)[C@@H]2CCCN2C(=O)[C@H]([C@@H](C)O)NC(=O)CNC(=O)[C@H](CC(=O)O)NC(=O)CN(C)C(=O)[C@H]([C@@H](C)O)NC(=O)[C@H](Cc2ccccc2)NC(=O)[C@H]([C@@H](C)O)NC(=O)[C@H]([C@@H](C)O)NC(=O)[C@H](CCC(=O)O)NC(=O)[C@H](CC(C)C)NC(=O)[C@H](Cc2c[nH]cn2)NC(=O)[C@H]([C@@H](C)O)NC(=O)[C@H](CCC(N)=O)NC(=O)CNC(=O)[C@H]2CCCN2C(=O)[C@H](CCC(N)=O)NC(=O)[C@H]([C@@H](C)O)NC(=O)[C@H](C(C)C)NC(=O)[C@H](CCCNC(=N)N)NC1=O [compound 92]

same assay, conditions: FP inhibition constant normalized to WT value

Compound	Relative Ki (Ki mut/Ki WT)
CC[C@H](C)[C@@H]1NC(=O)[C@H]([C@@H](C)O)NC(=O)[C@H](CCCCN)NC(=O)[C@@H]2CCCN2C(=O)[C@H]([C@@H](C)O)NC(=O)CNC(=O)[C@H](CC(=O)O)NC(=O)CNC(=O)[C@H]([C@@H](C)O)NC(=O)[C@H](Cc2ccccc2)NC(=O)[C@H]([C@@H](C)O)NC(=O)[C@H]([C@@H](C)O)NC(=O)[C@H](CCC(=O)O)NC(=O)[C@H](CC(C)C)NC(=O)[C@H](Cc2c[nH]cn2)NC(=O)[C@H]([C@@H](C)O)NC(=O)[C@H](CCC(N)=O)NC(=O)CNC(=O)[C@H]2CCCN2C(=O)[C@H](CCC(N)=O)NC(=O)[C@H](CCCNC(=N)N)NC(=O)[C@H](C(C)C)NC(=O)[C@H](CCCNC(=N)N)NC1=O [compound 44] (cyclo(THLETTFTGDGTPKTIRVRQ[dP]GQ))	1.06
CC[C@H](C)[C@@H]1NC(=O)[C@H]([C@@H](C)O)NC(=O)[C@H](CCCCN)NC(=O)[C@@H]2CCCN2C(=O)[C@H]([C@@H](C)O)NC(=O)CNC(=O)[C@H](CC(=O)O)NC(=O)CNC(=O)[C@H]([C@@H](C)O)NC(=O)[C@H](Cc2ccccc2)NC(=O)[C@H]([C@@H](C)O)NC(=O)[C@H]([C@@H](C)O)NC(=O)[C@H](CCC(=O)O)NC(=O)[C@H](CC(C)C)NC(=O)[C@H](Cc2c[nH]cn2)NC(=O)[C@H]([C@@H](C)O)NC(=O)[C@H](CCC(N)=O)NC(=O)CNC(=O)[C@H]2CCCN2C(=O)[C@H](CCC(N)=O)NC(=O)[C@H]([C@@H](C)O)NC(=O)[C@H](Cc2ccc(O)cc2)NC(=O)[C@H](CCCNC(=N)N)NC1=O [compound 47] (cyclo(THLETTFTGDGTPKTIRYTQ[dP]GQ))	0.85
CC[C@H](C)[C@@H]1NC(=O)[C@H]([C@@H](C)O)NC(=O)[C@H](CCCCN)NC(=O)[C@@H]2CCCN2C(=O)[C@H]([C@@H](C)O)NC(=O)CNC(=O)[C@H](CC(=O)O)NC(=O)CNC(=O)[C@H]([C@@H](C)O)NC(=O)[C@H](Cc2ccccc2)NC(=O)[C@H](CCC(=O)O)NC(=O)[C@H]([C@@H](C)O)NC(=O)[C@H](CCC(=O)O)NC(=O)[C@H](CC(C)C)NC(=O)[C@H](Cc2c[nH]cn2)NC(=O)[C@H]([C@@H](C)O)NC(=O)[C@H](CCC(N)=O)NC(=O)CNC(=O)[C@H]2CCCN2C(=O)[C@H](CCC(N)=O)NC(=O)[C@H]([C@@H](C)O)NC(=O)[C@H](C(C)C)NC(=O)[C@H](CCCNC(=N)N)NC1=O [compound 53] (cyclo(THLETEFTGDGTPKTIRVTQ[dP]GQ))	0.34
CC[C@H](C)[C@@H]1NC(=O)[C@H]([C@@H](C)O)NC(=O)[C@H](CCCCN)NC(=O)[C@@H]2CCCN2C(=O)[C@H]([C@@H](C)O)NC(=O)CNC(=O)[C@H](CC(=O)O)NC(=O)CNC(=O)[C@H]([C@@H](C)O)NC(=O)[C@H](Cc2ccccc2)NC(=O)[C@H]([C@@H](C)O)NC(=O)[C@H]([C@@H](C)O)NC(=O)[C@H](CCC(=O)O)NC(=O)[C@H](C)NC(=O)[C@H](Cc2c[nH]cn2)NC(=O)[C@H]([C@@H](C)O)NC(=O)[C@H](CCC(N)=O)NC(=O)CNC(=O)[C@H]2CCCN2C(=O)[C@H](CCC(N)=O)NC(=O)[C@H]([C@@H](C)O)NC(=O)[C@H](C(C)C)NC(=O)[C@H](CCCNC(=N)N)NC1=O [compound 57] (cyclo(THAETTFTGDGTPKTIRVTQ[dP]GQ))	2.36

Other lines, results leading:

Relative Ki (Ki mut/Ki WT)	Compound
0.89	CC[C@H](C)[C@@H]1NC(=O)[C@H]([C@@H](C)O)NC(=O)[C@H](CCCCN)NC(=O)[C@@H]2CCCN2C(=O)[C@H]([C@@H](C)O)NC(=O)CNC(=O)[C@H](CC(=O)O)NC(=O)CNC(=O)[C@H]([C@@H](C)O)NC(=O)[C@H](Cc2ccccc2)NC(=O)[C@H]([C@@H](C)O)NC(=O)[C@H]([C@@H](C)O)NC(=O)[C@H](CCC(=O)O)NC(=O)[C@H](CC(C)C)NC(=O)[C@H](Cc2c[nH]cn2)NC(=O)[C@H]([C@@H](C)O)NC(=O)[C@H](CCC(N)=O)NC(=O)CNC(=O)[C@H]2CCCN2C(=O)[C@H](CCC(N)=O)NC(=O)[C@H]([C@@H](C)O)NC(=O)[C@H](Cc2ccccc2)NC(=O)[C@H](CCCNC(=N)N)NC1=O [compound 46] (cyclo(THLETTFTGDGTPKTIRFTQ[dP]GQ))
1.05	CC[C@H](C)[C@@H]1NC(=O)[C@H]([C@@H](C)O)NC(=O)[C@H](CCCCN)NC(=O)[C@@H]2CCCN2C(=O)[C@H]([C@@H](C)O)NC(=O)CNC(=O)[C@H](CC(=O)O)NC(=O)CNC(=O)[C@H]([C@@H](C)O)NC(=O)[C@H](Cc2ccccc2)NC(=O)[C@H]([C@@H](C)O)NC(=O)[C@H]([C@@H](C)O)NC(=O)[C@H](CCC(=O)O)NC(=O)[C@H](CC(C)C)NC(=O)[C@H](Cc2c[nH]cn2)NC(=O)[C@H]([C@@H](C)O)NC(=O)[C@H](CCC(N)=O)NC(=O)CNC(=O)[C@H]2CCCN2C(=O)[C@H](CCC(N)=O)NC(=O)[C@H](Cc2ccccc2)NC(=O)[C@H](C(C)C)NC(=O)[C@H](CCCNC(=N)N)NC1=O [compound 48] (cyclo(THLETTFTGDGTPKTIRVFQ[dP]GQ))
1.25	CC[C@H](C)[C@@H]1NC(=O)[C@H]([C@@H](C)O)NC(=O)[C@H](CCCCN)NC(=O)[C@@H]2CCCN2C(=O)[C@H]([C@@H](C)O)NC(=O)CNC(=O)[C@H](CC(=O)O)NC(=O)CNC(=O)[C@H]([C@@H](C)O)NC(=O)[C@H](Cc2ccccc2)NC(=O)[C@H]([C@@H](C)O)NC(=O)[C@H]([C@@H](C)O)NC(=O)[C@H](CCC(=O)O)NC(=O)[C@H](CC(C)C)NC(=O)[C@H](Cc2c[nH]cn2)NC(=O)[C@H]([C@@H](C)O)NC(=O)[C@H](CCC(N)=O)NC(=O)CNC(=O)[C@H]2CCCN2C(=O)[C@H](CCC(N)=O)NC(=O)[C@H](Cc2ccc(O)cc2)NC(=O)[C@H](C(C)C)NC(=O)[C@H](CCCNC(=N)N)NC1=O [compound 49] (cyclo(THLETTFTGDGTPKTIRVYQ[dP]GQ))
4.79	CC[C@H](C)[C@@H]1NC(=O)[C@H](CO)NC(=O)[C@H](CCCCN)NC(=O)[C@@H]2CCCN2C(=O)[C@H]([C@@H](C)O)NC(=O)CNC(=O)[C@H](CC(=O)O)NC(=O)CNC(=O)[C@H]([C@@H](C)O)NC(=O)[C@H](Cc2ccccc2)NC(=O)[C@H]([C@@H](C)O)NC(=O)[C@H]([C@@H](C)O)NC(=O)[C@H](CCC(=O)O)NC(=O)[C@H](CC(C)C)NC(=O)[C@H](Cc2c[nH]cn2)NC(=O)[C@H]([C@@H](C)O)NC(=O)[C@H](CCC(N)=O)NC(=O)CNC(=O)[C@H]2CCCN2C(=O)[C@H](CCC(N)=O)NC(=O)[C@H]([C@@H](C)O)NC(=O)[C@H](C(C)C)NC(=O)[C@H](CCCNC(=N)N)NC1=O [compound 50] (cyclo(THLETTFTGDGTPKSIRVTQ[dP]GQ))
2.51	CC[C@H](C)[C@@H]1NC(=O)[C@H]([C@@H](C)O)NC(=O)[C@H](CCCCN)NC(=O)[C@@H]2CCCN2C(=O)[C@H]([C@@H](C)O)NC(=O)CNC(=O)[C@H](CC(=O)O)NC(=O)CNC(=O)[C@H]([C@@H](C)O)NC(=O)[C@H](Cc2ccccc2)NC(=O)[C@H]([C@@H](C)O)NC(=O)[C@H](CO)NC(=O)[C@H](CCC(=O)O)NC(=O)[C@H](CC(C)C)NC(=O)[C@H](Cc2c[nH]cn2)NC(=O)[C@H]([C@@H](C)O)NC(=O)[C@H](CCC(N)=O)NC(=O)CNC(=O)[C@H]2CCCN2C(=O)[C@H](CCC(N)=O)NC(=O)[C@H]([C@@H](C)O)NC(=O)[C@H](C(C)C)NC(=O)[C@H](CCCNC(=N)N)NC1=O [compound 52] (cyclo(THLESTFTGDGTPKTIRVTQ[dP]GQ))
